{"source": "ChEMBL document CHEMBL1143024", "about": "“Clavaminols A-F, novel cytotoxic 2-amino-3-alkanols from the ascidian Clavelina phlegraea” (Bioorg Med Chem, 2007)", "key": {"A549": {"test_system": "A549", "experiment": "Cytotoxicity against human A549 cells after 24 hrs by calcein uptake assay", "type": "functional, cell-based"}, "Jurkat [1]": {"test_system": "Jurkat", "experiment": "Cell cycle arrest in human Jurkat cells assessed as accumulation at G1/S phase at 10 ug/mL after 18 hrs […]", "type": "functional, cell-based"}, "AGS": {"test_system": "AGS", "experiment": "Cytotoxicity against human AGS cells after 24 hrs by calcein uptake assay", "type": "functional, cell-based"}, "T47D": {"test_system": "T47D", "experiment": "Cytotoxicity against human T47D cells after 24 hrs by calcein uptake assay", "type": "functional, cell-based"}, "Jurkat [2]": {"test_system": "Jurkat", "experiment": "Induction of apoptosis in human Jurkat cells assessed as increase in hypodiploid cells at 10 ug/mL after 18 hrs by TUNEL method", "type": "functional"}}, "note": "Activity calls are given as the source filed them. The rule behind the calls is not given here."}
{"smiles": "CCCCCCCCC[C@H](O)[C@@H](C)N", "note": "[CLAVAMINOL A]", "values": [{"measurement": "Activity", "setting": "A549", "value": "Active"}, {"measurement": "Activity", "setting": "Jurkat [1]", "value": "Active"}, {"measurement": "IC50", "setting": "AGS", "value": 5, "unit": "µg/mL"}, {"measurement": "Activity", "setting": "T47D", "value": "Active"}, {"measurement": "Activity", "setting": "Jurkat [2]", "value": 44.6, "unit": "%"}]}
{"smiles": "CCCCCCCCC[C@H](OC(C)=O)[C@@H](C)N", "values": [{"measurement": "Activity", "setting": "AGS", "value": "inactive"}]}
{"smiles": "CCCCCCCCC[C@H](O)[C@@H](C)NC(C)=O", "values": [{"measurement": "Activity", "setting": "AGS", "value": "inactive"}]}
